Results as given in publication PMC11917140, “Mining the UniProtKB/Swiss‐Prot database for antimicrobial peptides” (Protein Science : A Publication of the Protein Society, 2025).
Read-outs that look alike come from different tables or passages of the source. Residues, ends and D or L forms follow the SMILES beside them. No end group written: not given here.

Key:
[1] = system: Escherichia coli ATCC 25922; format: cell-based
Protocol: (§1) To measure the antimicrobial activity of our selected putative AMPs in vitro, broth microdilution assays were conducted to determine the minimum inhibitory and minimum bactericidal concentrations (MICs and MBCs, respectively), as outlined by the Clinical and Laboratory Standards Institute [CLSI] ([2015]). The adaptations for testing cationic AMPs, as described previously (Wiegand et al., [2008]), were incorporated. The selected peptides were tested against laboratory isolates of E. coli 25922 and S. aureus 29213, which were purchased from the American Type Culture Collection (ATCC; Manassas, VA, USA). Bacteria from frozen stocks were streaked onto nonselective Columbia blood agar with 5% sheep blood (Oxoid) and incubated for 18–24 h at 37°C. To ensure the uniform colony health before the assay, 2–4 colonies were streaked onto a new agar plate and incubated for another 18–24 h at 37°C on the next day. To create a standardized bacterial inoculum, isolated colonies were suspended in Mueller‐Hinton Broth (MHB; Sigma‐Aldrich, St. Louis, MO, USA). The suspension was adjusted to an optical density of 0.08–0.1 at 600 nm, which corresponds to a 0.5 McFarland standard of approximately 1–2 × 10^8 colony‐forming units (CFU)/mL. The inoculum was then diluted 1:250, resulting in a final concentration of 5 ± 3 × 10^5 CFU/mL. The target bacterial density was confirmed by measuring the total viability counts from the final tested inoculum.
(§2) The selected putative AMPs were purchased from and synthesized by GenScript (Piscataway, NJ, USA) in lyophilized format. The peptides were stored at −20°C and were suspended in sterile ultrapure water prior to testing. A two‐fold serial dilution of 1280 to 2.5 μg/mL was prepared in sterile 96‐well polypropylene microtiter plates (Greiner Bio‐One #650261, Kremsmünster, Austria). Then, 100 μL of the standardized bacterial inoculum was added to each well, resulting in a final AMP testing range of 128 to 0.25 μg/mL. The MIC values were determined as the lowest peptide concentration in which no visible bacterial growth was observed after a 20–24 h incubation at 37°C. To determine the MBC values, well contents of the MIC and the two adjacent wells containing the two‐ and four‐fold higher peptide concentrations were plated onto nonselective nutrient agar. The concentration in which 99.9% of the inoculum was killed after an incubation for 24 h at 37°C was reported as the MBC.
(§3) In our tests, we used Ranatuerin‐4—a known AMP from the American bullfrog (Goraya et al., [1998]), and an in‐house peptide [TKPKG]3 (OT15) as the positive and negative control peptides, respectively. We note that OT15 was truncated and derived from a negative control peptide [TKPKG]4 (OT20), not antimicrobial but sharing similar characteristics to AMPs, used in previous studies (Horváti et al., [2017]).

[2] = system: Staphylococcus aureus ATCC 29213; format: cell-based
Protocol: as §1, §2, §3

[3] = broth microdilution (CLSI, adapted for cationic AMPs), MHB, 5 ± 3 × 10^5 CFU/mL, 20–24 h at 37°C, tested 0.25–128 μg/mL, range from three independent experiments in duplicate, one maximum and one minimum data point dropped
[4] = concentration killing 99.9% of inoculum, plated on nutrient agar, 24 h at 37°C, range from three independent experiments in duplicate, one maximum and one minimum data point dropped

| Molecule | MIC, E. coli ATCC 25922 [1, 3] [µg/mL] | MBC, E. coli ATCC 25922 [1, 4] [µg/mL] | MIC, S. aureus ATCC 29213 [2, 3] [µg/mL] | MBC, S. aureus ATCC 29213 [2, 4] [µg/mL] | MIC, E. coli ATCC 25922 ([1]; ATCC 25922) [µg/mL] | MBC, E. coli ATCC 25922 ([1]; ATCC 25922, 24 h) [µg/mL] | MIC, S. aureus ATCC 29213 ([2]; ATCC 29213) [µg/mL] | MBC, S. aureus ATCC 29213 ([2]; ATCC 29213, 24 h) [µg/mL] |
| --- | --- | --- | --- | --- | --- | --- | --- | --- |
| FLEKPPGPLGARPLGGK [MuMu4, putative AMP mined from UniProt Q9Z0L3, Mus musculus] | > 128 | > 128 | > 128 | > 128 |  |  |  |  |
| DLWFGLKTEGELAFVKRTIFDVIYKSAKRKR [ArTh10] |  |  |  |  | > 128 | > 128 | > 128 | > 128 |
| WLLVLQRGHRLASIKHVCQLSERKR [DaRe1] |  |  |  |  | 32 to 64 | 32 to 64 | > 128 | > 128 |
| QVWKRR [HoSa8, putative AMP mined from UniProt Q9BXP8, Homo sapiens] | > 128 | > 128 | > 128 | > 128 |  |  |  |  |
| RVKRFWPLVPVAINTVAAGINLYKAIRRK [Chicken CATH-3, reference compound] |  |  |  |  | 2 to 4 | 2 to 4 | 2 | 2 to 4 |
| CC[C@H](C)[C@H](NC(=O)[C@H](CC(C)C)NC(=O)[C@H](CC(=O)O)NC(=O)[C@H](CCCNC(=N)N)NC(=O)[C@H](CO)NC(=O)[C@H](CS)NC(=O)[C@H](Cc1c[nH]cn1)NC(=O)[C@H](Cc1c[nH]cn1)NC(=O)[C@H](Cc1c[nH]cn1)NC(=O)[C@H](Cc1ccc(O)cc1)NC(=O)[C@H](CC(C)C)NC(=O)[C@H](Cc1ccccc1)NC(=O)[C@H](CC(N)=O)NC(=O)[C@H](CC(C)C)NC(=O)[C@H](CC(C)C)NC(=O)[C@H](Cc1ccc(O)cc1)NC(=O)[C@H](CO)NC(=O)[C@H](CS)NC(=O)[C@@H](NC(=O)[C@H](Cc1c[nH]c2ccccc12)NC(=O)[C@H](Cc1ccccc1)NC(=O)[C@@H](NC(=O)[C@H](Cc1c[nH]c2ccccc12)NC(=O)[C@H](CC(N)=O)NC(=O)[C@H](CCCCN)NC(=O)[C@H](C)NC(=O)[C@H](Cc1c[nH]c2ccccc12)NC(=O)[C@H](CC(=O)O)NC(=O)[C@H](Cc1c[nH]c2ccccc12)NC(=O)[C@H](C)N)C(C)C)[C@@H](C)O)C(=O)N[C@@H](CCCNC(=N)N)C(=O)N[C@@H](CCCNC(=N)N)C(=O)O [ScPo1] (H-AWDWAKNWVFWTCSYLLNFLYHHHCSRDLIRR-OH; N-terminus and C-terminus assumed) |  |  |  |  | > 128 | > 128 | > 128 | > 128 |
| GLIKRIIRQKR [GaGa2] |  |  |  |  | 128 |  | > 128 |  |
| QFFLPMILRLYVSRLFISKL [CaGl2, putative AMP mined from UniProt P05040, Candida glabrata] | > 128 | > 128 | > 128 | > 128 |  |  |  |  |
| YVSPVAIVKGLNIPL [Ovipin, reference compound] |  |  |  |  | > 128 |  | > 128 |  |
| ARLDVAAEFRKKWNKWALSRGKR [SuSc1] | 128 |  | > 128 | > 128 |  |  |  |  |
| FWNLNKKKKFFYKTVKNSIGQVILRDMSNN [DiDi2] |  |  |  |  | 16 | 16 | > 128 | > 128 |
| SYWWWGFHKNVIDRREAFYADLAEKKKAEN [CaGl1] |  |  |  |  | > 128 | > 128 | > 128 | > 128 |
| RSIIRNGIRTLTWRKETKRKKK [ArTh11] | 64 to 128 |  | > 128 | > 128 | 64 to 128 |  |  |  |
| GVLKKVIRHKR [HoSa6, putative AMP mined from UniProt P24821, Q29116; Homo sapiens, Sus scrofa] | > 128 | > 128 | > 128 | > 128 |  |  |  |  |
| WIIQCWWRQVLEKLLAKRRR [HoSa4] | 32 | 32 | 64 to 128 |  |  |  | 64 to 128 |  |
| VWEFFEAGAGLRASNASKKIYGVAKRFRR [DiVi1] |  |  |  |  | > 128 | > 128 | > 128 | > 128 |
| RFGRFLRKIRRFRPKVTITIQGSARFG [Chicken CATH-2, reference compound] |  |  |  |  | 8 to 16 | 8 to 16 | 32 | 32 |
| FMRFGKRFMRFGRFGKSAEVENNIQIAAKQS [LySt2] |  |  |  |  | > 128 | > 128 | > 128 | > 128 |
| RIRGHTIKG [DrMe6, putative AMP mined from UniProt O46201, Drosophila melanogaster] | > 128 | > 128 | > 128 | > 128 |  |  |  |  |
| GLQKLINKIKSQMSRFSTKTNKICGP [HoSa1] |  |  |  |  | 16 | 16 to 32 | 128 |  |
| VLKKSEIRIDFISRTILHI [MoIn1, putative AMP mined from UniProt Q09WW0, Morus indica] |  |  | > 128 | > 128 |  |  |  |  |
| CSCC[C@H](NC(=O)CNC(=O)[C@H](CO)NC(=O)[C@H](CCCNC(=N)N)NC(=O)[C@@H](NC(=O)[C@H](CO)NC(=O)[C@H](Cc1ccccc1)NC(=O)CNC(=O)[C@H](Cc1ccccc1)NC(=O)[C@@H](NC(=O)[C@H](CO)NC(=O)[C@H](CCCNC(=N)N)NC(=O)[C@H](CCCNC(=N)N)NC(=O)[C@@H](NC(=O)[C@H](C)NC(=O)[C@H](CS)NC(=O)[C@H](Cc1ccccc1)NC(=O)[C@H](CCC(N)=O)NC(=O)[C@H](C)NC(=O)[C@H](CCCNC(=N)N)NC(=O)CNC(=O)[C@H](C)NC(=O)[C@H](Cc1ccc(O)cc1)NC(=O)[C@H](C)NC(=O)[C@H](Cc1c[nH]c2ccccc12)NC(=O)[C@H](CCC(N)=O)NC(=O)[C@H](CO)NC(=O)[C@H](Cc1c[nH]c2ccccc12)NC(=O)[C@@H](N)CCCNC(=N)N)C(C)C)C(C)C)C(C)C)C(=O)N[C@H](C(=O)N[C@@H](CS)C(=O)N[C@@H](CCCNC(=N)N)C(=O)N1CCC[C@H]1C(=O)N[C@@H](CCCNC(=N)N)C(=O)N[C@@H](CCCNC(=N)N)C(=O)O)C(C)C [MuMu1] (H-RWSQWAYAGRAQFCAVRRSVFGFSVRSGMVCRPRR-OH; N-terminus and C-terminus assumed) |  |  |  |  | ≥ 128 |  | > 128 | > 128 |
